Data on eight compounds can be found in PubChem BioAssay (NCI).

Structures are written as SMILES. Where “and” joins values, the source holds several entries; their conditions need not be identical. Equal values may be shown once.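 The compound was tested at five concentrations on cells cultured in 96-well plates, with a 48-hour exposure period. Here, GI50 denotes the concentration required for 50% inhibition of growth. TGI marks complete inhibition of growth.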

Test systems include A549 NSCLC; A498 renal; MOLT-4 leukemia; SK-MEL-5 melanoma; DU-145 prostate; NCI-H23 lung; PC-3 prostate; OVCAR-3 ovarian; SF-539 CNS; K-562 leukemia.
Assay in all cases: DTP human tumour cell line panel, 48 h

For the compound `COc1cc(/C=N/Nc2ncnc3c2cnn3Cc2ccccc2)ccc1O`, the GI50 – broadly, the concentration that inhibits growth by half – in the test with A549 NSCLC is 8.69 µM; in the test with A498 renal it was more than 18.3 µM; in the test on MOLT-4 leukemia, more than 25 µM; with SK-MEL-5 melanoma, 12.2 µM; in the test with DU-145 prostate, 12.2 µM; in the test on NCI-H23 lung it was 11.9 µM. For the same compound, the GI50 is 11.7 µM in the test with PC-3 prostate, 6.8 µM with OVCAR-3 ovarian, 8.12 µM in the test with SF-539 CNS and more than 6.57 µM in the test on K-562 leukemia. The TGI (usually the concentration giving total growth inhibition) was more than 23.9 µM with A549 NSCLC; more than 25 µM in the test on A498 renal; more than 25 µM in the test on MOLT-4 leukemia; more than 25 µM in the test on SK-MEL-5 melanoma; more than 25 µM in the test on DU-145 prostate; more than 25 µM in the test on NCI-H23 lung. Further, the concentration for total growth inhibition (TGI) with PC-3 prostate is more than 25 µM; in the test on OVCAR-3 ovarian, more than 19.7 µM; with SF-539 CNS, 24.4 µM; with K-562 leukemia, more than 25 µM.
In the case of `O=C1C(Cl)=C(Nc2ccccn2)C(=O)c2ccccc21`, the GI50 was 9.02 µM in the test on A549 NSCLC; 12.9 µM in the test on A498 renal; 2.79 µM with MOLT-4 leukemia; 1.65 µM in the test with SK-MEL-5 melanoma; 1.94 µM with DU-145 prostate; 2.18 µM with NCI-H23 lung. In addition, the GI50 is 2.27 µM in the test on PC-3 prostate, 1.86 µM in the test on OVCAR-3 ovarian, 2.07 µM with SF-539 CNS and 1.92 µM in the test with K-562 leukemia. In addition, the total growth inhibition concentration (TGI) in the test with A549 NSCLC came out at 37 µM; with A498 renal, 25.6 µM; in the test with MOLT-4 leukemia, 6.6 µM; in the test on SK-MEL-5 melanoma, 3.03 µM; in the test with DU-145 prostate, 3.39 µM; with NCI-H23 lung it was 7.4 µM. Also, the TGI with PC-3 prostate was found to be 8.35 µM; in the test on OVCAR-3 ovarian, 3.98 µM; in the test on SF-539 CNS, 4.75 µM; in the test with K-562 leukemia it was 5.42 µM.
As to `O=C1CCCC(=O)C1C(=O)c1ccc(C(F)(F)F)cc1[N+](=O)[O-]`, the GI50 in the test on A549 NSCLC, with A498 renal, in the test with MOLT-4 leukemia, with SK-MEL-5 melanoma, in the test with DU-145 prostate and in the test with NCI-H23 lung was more than 100 µM each time. Besides, the GI50 with PC-3 prostate, in the test with OVCAR-3 ovarian, with SF-539 CNS and in the test on K-562 leukemia was more than 100 µM in each case. The TGI in the test on A549 NSCLC, with A498 renal, in the test with MOLT-4 leukemia, in the test with SK-MEL-5 melanoma, with DU-145 prostate and in the test on NCI-H23 lung was more than 100 µM each time. For the same compound, the TGI with PC-3 prostate, with OVCAR-3 ovarian, in the test with SF-539 CNS and in the test on K-562 leukemia was more than 100 µM throughout.
Regarding `CS(=O)(=O)N(CC(=O)O)Cc1ccccc1`, the TGI with A549 NSCLC, in the test on A498 renal, in the test on MOLT-4 leukemia, with SK-MEL-5 melanoma, in the test on DU-145 prostate and in the test with NCI-H23 lung was more than 100 µM each time. Further, the TGI in the test with PC-3 prostate, with OVCAR-3 ovarian, with SF-539 CNS and in the test with K-562 leukemia was more than 100 µM each time.
Consider `COc1cc([N+](=O)[O-])c(OC)cc1-c1nc2n(c1/C(N)=N/C(=N)N)CCS2`, for which the GI50 was 59.3 µM with A549 NSCLC; more than 100 µM in the test with A498 renal; more than 100 µM in the test with MOLT-4 leukemia; 75.3 µM in the test on SK-MEL-5 melanoma; 50.4 µM in the test with DU-145 prostate; 23.3 µM in the test with NCI-H23 lung. Also, the GI50 was more than 100 µM in the test on PC-3 prostate, 33.5 µM with OVCAR-3 ovarian, 26.2 µM in the test on SF-539 CNS and more than 100 µM with K-562 leukemia. For the same compound, the TGI in the test with A549 NSCLC is more than 100 µM; in the test on A498 renal, more than 100 µM; with MOLT-4 leukemia, more than 100 µM; in the test with SK-MEL-5 melanoma, more than 100 µM; with DU-145 prostate, more than 100 µM; in the test with NCI-H23 lung, 87.1 µM. Moreover, the TGI with PC-3 prostate, with OVCAR-3 ovarian, with SF-539 CNS and with K-562 leukemia was more than 100 µM throughout.
Regarding `CCCN(CCC)c1ccc(/C=N/NC(=O)c2cccnc2)cc1`, the GI50 is 27.5 µM in the test on A549 NSCLC; 10.2 µM in the test on A498 renal; 31 µM in the test with MOLT-4 leukemia; 18.2 µM in the test with SK-MEL-5 melanoma; 36.1 µM in the test with DU-145 prostate; 36.1 µM in the test on NCI-H23 lung. Also, the GI50 in the test on PC-3 prostate was 29.5 µM; in the test on OVCAR-3 ovarian it was 20.1 µM; in the test with SF-539 CNS, 18.8 µM; in the test with K-562 leukemia, 8.02 µM. The TGI in the test on A549 NSCLC is more than 100 µM; with A498 renal, 22.3 µM; in the test with MOLT-4 leukemia, more than 100 µM; in the test with SK-MEL-5 melanoma it was 42 µM; in the test on DU-145 prostate, more than 100 µM; in the test with NCI-H23 lung, more than 100 µM. The total growth inhibition concentration (TGI) with PC-3 prostate is more than 100 µM; in the test with OVCAR-3 ovarian it was 45.3 µM; in the test on SF-539 CNS, 61.4 µM; in the test on K-562 leukemia, more than 100 µM.
Take `[O]=[W](=[O])([OH])[OH]`: the GI50 with A549 NSCLC, in the test with A498 renal, in the test on MOLT-4 leukemia, in the test with SK-MEL-5 melanoma, in the test with DU-145 prostate and with NCI-H23 lung was more than 100 µM each time. Besides, the GI50 in the test on PC-3 prostate, in the test on OVCAR-3 ovarian, with SF-539 CNS and with K-562 leukemia was more than 100 µM throughout. In addition, the TGI with A549 NSCLC, with A498 renal, with MOLT-4 leukemia, with SK-MEL-5 melanoma, in the test on DU-145 prostate and in the test on NCI-H23 lung was more than 100 µM throughout. Besides, the TGI in the test with PC-3 prostate, in the test on OVCAR-3 ovarian, in the test with SF-539 CNS and with K-562 leukemia was more than 100 µM in each case.
`CN1CCN(CCCN2c3ccccc3Sc3ccc(C(F)(F)F)cc32)CC1`: the GI50 in the test on A549 NSCLC is 2.31 µM; in the test on A498 renal, 2.4 µM; in the test with MOLT-4 leukemia it was 2.35 µM; in the test with SK-MEL-5 melanoma it was 1.65 µM; in the test on DU-145 prostate, 2.39 µM; with NCI-H23 lung, 3.29 µM. In addition, the GI50 is 2.31 µM in the test on PC-3 prostate; 1.93 µM and 6.26 µM and 13.8 µM in the test with OVCAR-3 ovarian; 1.94 µM with SF-539 CNS; 2.13 µM and 2.01 µM and 4.6 µM with K-562 leukemia. In addition, the TGI was 6.47 µM and 24.5 µM and 25.2 µM with A549 NSCLC; 12.9 µM and 29.5 µM and 26.7 µM with A498 renal; 4.92 µM and 10.8 µM and 20.6 µM with MOLT-4 leukemia; 3.04 µM and 4.34 µM and 6.17 µM in the test with SK-MEL-5 melanoma; 5.48 µM and 23.3 µM and 30.1 µM with DU-145 prostate; 14.1 µM and 26.7 µM and 27.7 µM in the test with NCI-H23 lung. For the same compound, the concentration for total growth inhibition (TGI) was 8.42 µM and 16.8 µM and 17.5 µM with PC-3 prostate; 3.76 µM and 20.4 µM and 27 µM in the test with OVCAR-3 ovarian; 4.12 µM and 18.6 µM and 20.1 µM in the test on SF-539 CNS; 4.27 µM and 28.6 µM in the test on K-562 leukemia.
